Measured values as given in ChEMBL document CHEMBL1134442, “Novel selective PDE4 inhibitors. 2. Synthesis and structure-activity relationships of 4-aryl-substituted cis-tetra- and cis-hexahydrophthalazinones” (J Med Chem, 2001).

What was measured:
[1] = biological target: Phosphodiesterase 4 (Homo sapiens, UniProt P27815+Q08499+Q07343+Q08493); experiment: Inhibition of phosphodiesterase 4 (PDE4) in human neutrophils; assay type: protein assay
[2] = biological target: Phosphodiesterase 3 (Homo sapiens, UniProt Q14432+Q13370); experiment: Inhibitory activity of the against phosphodiesterase 3 (PDE3); No significant inhibitory activity at pIC50; assay type: protein assay

Compound: COc1ccc(C2=NN(C3CCCCCC3)C(=O)C3CC=CCC23)cc1OCC1CC1 (stereo not given)
- pIC50 [1]: 9
- pIC50 [2]: < 5.5

Compound: COc1ccc(C2=NN(C3CCCCCC3)C(=O)C3CC=CCC23)cc1OCCCCCc1ccccc1 (stereo not given)
- pIC50 [1]: 8.3
- pIC50 [2]: < 5.5

Compound: COc1ccc(C2=NN(C3CCCCCC3)C(=O)C3CC=CCC23)cc1O (stereo not given)
- pIC50 [1]: 7.4
- pIC50 [2]: < 5.5

Compound: COc1ccc(C2=NN(C3CCCCCC3)C(=O)C3CC=CCC23)cc1OCCCCCCOc1ccc(C(N)=O)cc1 (stereo not given)
- pIC50 [1]: 9.5
- pIC50 [2]: < 5.5

Compound: COc1ccc(C2=NN(Cc3ccccc3)C(=O)C3CCCCC23)cc1OC1CCCC1 (stereo not given)
- pIC50 [1]: 8
- pIC50 [2]: < 5.5

Compound: COc1ccc(C2=NN(Cc3ccccc3)C(=O)C3CCCCC23)cc1 (stereo not given)
- pIC50 [1]: 5.9
- pIC50 [2]: < 5.5

Compound: COc1ccc(C2=NN(C3CCCCCC3)C(=O)C3CC=CCC23)cc1OC (stereo not given)
- pIC50 [1]: 9.1
- pIC50 [2]: < 5.5

Compound: COc1ccc(C2=NN(C3CCCCCC3)C(=O)C3CC=CCC23)cc1OCCCCOc1ccc(-n2ccnc2)cc1 (stereo not given)
- pIC50 [1]: 9.7
- pIC50 [2]: < 5.5

Compound: COc1ccc(C2=NN(C3CCCCCC3)C(=O)C3CC=CCC23)cc1OCCN(C)C (stereo not given)
- pIC50 [1]: 7.2
- pIC50 [2]: < 5.5

Compound: COc1ccc(C2=NN(Cc3ccccc3)C(=O)C3CCCCC23)c2c1OC1(CCCC1)C2 (stereo not given)
- pIC50 [1]: 8.6
- pIC50 [2]: < 5.5

Compound: COc1ccc(C2=NN(C3CCCCCC3)C(=O)C3CC=CCC23)cc1OCCO (stereo not given)
- pIC50 [1]: 8.4
- pIC50 [2]: < 5.5

Compound: COc1ccc(C2=NN(C3CCCCCC3)C(=O)C3CC=CCC23)c2c1OC1(CCCC1)C2 (stereo not given)
- pIC50 [1]: 9.2
- pIC50 [2]: < 5.5

Compound: COc1ccc(C2=NN(C3CCCCCC3)C(=O)C3CC=CCC23)cc1OCCCC(=O)O (stereo not given)
- pIC50 [1]: 7.2
- pIC50 [2]: < 5.5

Compound: COc1ccc(C2=NN(C3CCCCCC3)C(=O)C3CC=CCC23)cc1OC1CCCC1 (stereo not given)
- pIC50 [1]: 8.9
- pIC50 [2]: < 5.5

Compound: COc1ccc(C2=NN(C3CCCCCC3)C(=O)C3CC=CCC23)cc1OC(F)F (stereo not given)
- pIC50 [1]: 8.8
- pIC50 [2]: < 5.5

Compound: COc1cccc(C2=NN(Cc3ccccc3)C(=O)C3CCCCC23)c1 (stereo not given)
- pIC50 [1]: 5.6
- pIC50 [2]: < 5.5

Compound: COc1ccc(C2=NN(Cc3ccccc3)C(=O)C3CCCCC23)cc1OC (stereo not given)
- pIC50 [1]: 8.1
- pIC50 [2]: < 5.5

Compound: COc1ccc(C2=NN(C3CCCCCC3)C(=O)C3CC=CCC23)cc1OCCCCOc1ccc(C(=O)O)cc1 (stereo not given)
- pIC50 [1]: 9.5
- pIC50 [2]: < 5.5

Compound: COc1cc(C2=NN(Cc3ccccc3)C(=O)C3CCCCC23)ccc1OC1CCCC1 (stereo not given)
- pIC50 [1]: < 5
- pIC50 [2]: < 5.5

Compound: COc1ccc(C2=NN(C3CCCCCC3)C(=O)C3CC=CCC23)cc1OCCCCN(C)C (stereo not given)
- pIC50 [1]: 7.4
- pIC50 [2]: < 5.5

Compound: COc1ccc(C2=NN(C3CCCCCC3)C(=O)C3CC=CCC23)cc1OCCCCCCOc1ccc(C(=O)O)cc1 (stereo not given)
- pIC50 [1]: 8.7
- pIC50 [2]: < 5.5

Compound: COc1ccc(C2=NN(C3CCCCCC3)C(=O)C3CC=CCC23)c2c1OC(C)(C)C2 (stereo not given)
- pIC50 [1]: 9
- pIC50 [2]: < 5.5

Compound: COc1ccc(C2=NN(C3CCCCCC3)C(=O)C3CC=CCC23)cc1OCCCCn1cnc2ncncc21 (stereo not given)
- pIC50 [1]: 7.6
- pIC50 [2]: < 5.5

Compound: COc1ccc(C2=NN(C3CCCCCC3)C(=O)C3CC=CCC23)cc1OCCCCC(=O)O (stereo not given)
- pIC50 [1]: 7.8
- pIC50 [2]: < 5.5

Compound: COc1ccc(C2=NN(C3CCCCCC3)C(=O)C3CC=CCC23)cc1OCCCCOc1ccc(C#N)cc1 (stereo not given)
- pIC50 [1]: 8.6
- pIC50 [2]: < 5.5

Compound: O=C1C2CCCCC2C(c2ccccc2)=NN1Cc1ccccc1 (stereo not given)
- pIC50 [1]: < 5
- pIC50 [2]: < 5.5

Compound: COc1ccc(C2=NN(C3CCCCCC3)C(=O)C3CC=CCC23)cc1OCCCCCCOc1ccccc1 (stereo not given)
- pIC50 [1]: 8
- pIC50 [2]: < 5.5

Compound: COc1ccc(C2=NN(C3CCCCCC3)C(=O)C3CC=CCC23)cc1OCCCCOc1ccc(-c2nn[nH]n2)cc1 (stereo not given)
- pIC50 [1]: 9.2
- pIC50 [2]: < 5.5

Compound: COc1ccc(C2=NN(C3CCCCCC3)C(=O)C3CC=CCC23)cc1OCCCCn1ccnc1 (stereo not given)
- pIC50 [1]: 8.1
- pIC50 [2]: < 5.5

Compound: O=C1C2CCCCC2C(c2ccc3c(c2)OCO3)=NN1Cc1ccccc1 (stereo not given)
- pIC50 [1]: 5.8
- pIC50 [2]: < 5.5

Compound: COc1ccc(C2=NN(C3CCCCCC3)C(=O)C3CC=CCC23)cc1Cl (stereo not given)
- pIC50 [1]: 8
- pIC50 [2]: < 5.5

Compound: O=C1C2CCCCC2C(c2cccc(Cl)c2)=NN1Cc1ccccc1 (stereo not given)
- pIC50 [1]: < 5
- pIC50 [2]: < 5.5

Compound: COc1ccc(C2=NN(C3CCCCCC3)C(=O)C3CC=CCC23)cc1OCC(=O)O (stereo not given)
- pIC50 [1]: 5.6
- pIC50 [2]: < 5.5

Compound: CCOc1ccc(C2=NN(Cc3ccccc3)C(=O)C3CCCCC23)cc1OCC (stereo not given)
- pIC50 [1]: 7.8
- pIC50 [2]: < 5.5

Compound: COc1ccc([C@@H]2CNC(=O)C2)cc1OC1CCCC1 [(-)-ROLIPRAM]
- pIC50 [2]: < 5.5

Compound: COc1ccc([C@]2(C#N)CC[C@@H](C(=O)O)CC2)cc1OC1CCCC1 [CILOMILAST]
- pIC50 [2]: < 5.5
